Results as given in patent publication US10883993B2, “P53 biomarkers” (MULTIVIR INC., priority 2008, dated 2021).

Assays:
SCCHN = conditions: monotherapy studies in SCCHN, ITT population, standard of care drugs; cited from earlier work
SCCHN patients = experiment: Safety data, Phase III SCCHN study (ADVEXIN vs methotrexate)
recurrent SCCHN = experiment: Phase 3 pivotal trial T301 (ADVEXIN or methotrexate), tumor response and survival; assay type: in vivo, human
Excerpt: Favorable response to the therapy may comprise reduction in tumor size or burden, blocking of tumor growth, reduction in tumor-associated pain, reduction in tumor-associated pathology, reduction in tumor-associated symptoms, tumor non-progression, increased disease free interval, increased time to progression, induction of remission, reduction of metastasis, or increased patient survival. Particularly, “tumor response” may refer to tumor growth control (tumor growth control (TGC) defined by complete (CR) and partial (PR) reductions in size of >50% or Stable Disease (SD); TGC=CR+PR+SD) or reductions in tumor size of >10%.
Table 2 summarizes the results of these analyses and provides the corresponding data for patients treated with methotrexate in the pivotal Phase 3 T301 study.

αv/β3 vascular integrin [1] = conditions: mice, without harming them; cited from earlier work
αv/β3 vascular integrin [2] = target: T1, αv/β3 vascular integrin (Homo sapiens, UniProt P05106+P06756); conditions: Phase II clinical trials in humans, without harmful side effects; cited from earlier work
T1 construct: the new blood vessels in tumors express a vascular integrin, designated αv/β3; host or cells: tumour blood vessels of human patients

[3] = T301, p53 gene status wild type
[4] = T301 methotrexate ITT population

T1 sequence (P06756 31-889 limits assumed): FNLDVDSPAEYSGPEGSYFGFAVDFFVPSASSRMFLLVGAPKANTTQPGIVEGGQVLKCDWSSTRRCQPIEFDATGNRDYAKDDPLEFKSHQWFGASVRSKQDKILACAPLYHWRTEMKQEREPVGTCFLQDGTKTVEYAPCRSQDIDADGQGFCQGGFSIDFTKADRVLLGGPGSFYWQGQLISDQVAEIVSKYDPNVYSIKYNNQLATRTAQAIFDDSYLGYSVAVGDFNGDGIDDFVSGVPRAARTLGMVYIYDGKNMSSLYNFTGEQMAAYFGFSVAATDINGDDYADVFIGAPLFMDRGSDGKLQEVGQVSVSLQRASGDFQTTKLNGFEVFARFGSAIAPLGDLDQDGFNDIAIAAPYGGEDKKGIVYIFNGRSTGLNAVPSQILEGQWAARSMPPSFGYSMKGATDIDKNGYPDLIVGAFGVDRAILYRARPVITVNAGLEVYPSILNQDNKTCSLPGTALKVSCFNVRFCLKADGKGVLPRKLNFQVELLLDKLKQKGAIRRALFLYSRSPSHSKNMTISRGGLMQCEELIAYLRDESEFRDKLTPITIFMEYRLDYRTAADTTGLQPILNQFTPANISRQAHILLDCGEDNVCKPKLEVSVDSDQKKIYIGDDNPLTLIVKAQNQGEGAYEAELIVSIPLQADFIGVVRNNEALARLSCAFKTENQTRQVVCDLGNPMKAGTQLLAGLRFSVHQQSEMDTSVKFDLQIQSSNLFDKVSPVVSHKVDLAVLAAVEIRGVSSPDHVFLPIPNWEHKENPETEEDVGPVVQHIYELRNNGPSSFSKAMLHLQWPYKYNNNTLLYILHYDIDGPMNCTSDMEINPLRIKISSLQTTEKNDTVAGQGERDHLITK
T1 sequence (P06756 891-1048 limits assumed): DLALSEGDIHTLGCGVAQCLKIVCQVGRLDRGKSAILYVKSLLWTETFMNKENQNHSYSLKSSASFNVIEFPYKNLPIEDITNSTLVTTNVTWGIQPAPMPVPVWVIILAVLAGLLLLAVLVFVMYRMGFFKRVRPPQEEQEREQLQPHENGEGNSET
T1 sequence (P05106 27-788): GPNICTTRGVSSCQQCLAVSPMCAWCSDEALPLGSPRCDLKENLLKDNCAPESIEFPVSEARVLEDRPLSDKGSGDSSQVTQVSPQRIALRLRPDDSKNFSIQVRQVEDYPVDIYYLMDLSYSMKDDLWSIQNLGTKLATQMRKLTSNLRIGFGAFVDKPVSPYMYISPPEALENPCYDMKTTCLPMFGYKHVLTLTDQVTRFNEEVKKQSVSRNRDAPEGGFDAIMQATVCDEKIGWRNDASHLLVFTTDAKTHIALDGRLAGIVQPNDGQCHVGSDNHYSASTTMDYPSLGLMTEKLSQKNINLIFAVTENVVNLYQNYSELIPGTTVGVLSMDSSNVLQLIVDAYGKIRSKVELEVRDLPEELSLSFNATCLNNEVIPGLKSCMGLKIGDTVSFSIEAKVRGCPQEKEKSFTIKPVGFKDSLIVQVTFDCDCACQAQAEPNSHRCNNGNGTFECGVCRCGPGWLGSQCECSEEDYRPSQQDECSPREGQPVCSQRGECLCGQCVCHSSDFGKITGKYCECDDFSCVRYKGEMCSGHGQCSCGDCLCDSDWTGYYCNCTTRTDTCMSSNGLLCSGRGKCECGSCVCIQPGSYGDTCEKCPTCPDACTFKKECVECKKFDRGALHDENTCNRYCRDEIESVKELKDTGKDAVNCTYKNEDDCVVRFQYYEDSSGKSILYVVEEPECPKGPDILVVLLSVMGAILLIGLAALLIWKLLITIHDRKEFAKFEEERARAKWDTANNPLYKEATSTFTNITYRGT

## CC(=O)O[C@@]12CO[C@@H]1C[C@H](O)[C@@]1(C)C(=O)[C@H](O)C3=C(C)[C@@H](OC(=O)[C@H](O)[C@@H](NC(=O)OC(C)(C)C)c4ccccc4)C[C@@](O)([C@@H](OC(=O)c4ccccc4)[C@H]21)C3(C)C [Docetaxel]
SCCHN
  Median Overall Survival: 6.6 months

## C#Cc1cccc(Nc2ncnc3cc(OCCOC)c(OCCOC)cc23)c1 [Erlotinib]
SCCHN
  Median Overall Survival: 5.8 months

## CN(Cc1cnc2nc(N)nc(N)c2n1)c1ccc(C(=O)N[C@@H](CCC(=O)O)C(=O)O)cc1 [Methotrexate]
SCCHN patients; Phase III SCCHN study
  Grade 3 or 4 laboratory event: leukopenia: 12.1%
  Grade 3 or 4 laboratory event: lymphopenia: 25.6%
  Grade 3 or 4 laboratory event: neutropenia: 12.1%
  Incidence of Grade 3 or 4 laboratory events: 39.5%
SCCHN patients; Phase III SCCHN study, compared with ADVEXIN patients
  Body weight loss over time: more body weight loss
SCCHN patients; Phase III recurrent SCCHN study, due to leukopenia
  Deaths attributed to treatment: one death
SCCHN patients; Phase III study, relative to ADVEXIN
  Incidences of stomatitis, nausea, pneumonia, paresthesia, leucopenia and neutropenia: higher incidences
Recurrent SCCHN; T301
  Median survival, patients with p53 profiles favorable for ADVEXIN efficacy: 4.3 months
  Median survival, patients with p53 profiles unfavorable for ADVEXIN efficacy: 6.0 months
Recurrent SCCHN; T301, p53 gene status mutated
  Tumor Growth Control, patients with TGC / patients: 13/15
  Tumor Growth Control, percentage of patients: 87%
Recurrent SCCHN; [3]
  Tumor Growth Control, patients with TGC / patients: 11/20
  Tumor Growth Control, percentage of patients: 55%
Recurrent SCCHN; T301 ITT population
  Median Survival, TGC Non-Responders: 3.8 months
  Median Survival, TGC Responders: 7.5 months
Recurrent SCCHN; T301 ITT population, TGC = CR+PR+SD
  % Tumor Growth Control: 53.3%
Recurrent SCCHN; [4]
  % Tumor Response (≥10% tumor reduction): 18.3%
  % Tumor Response (≥50% tumor reduction): 11.7%
  Median Survival, Non-Responders (≥10% tumor reduction criterion): 4.3 months
  Median Survival, Non-Responders (≥50% tumor reduction criterion): 4.6 months
  Median Survival, Responders (≥10% tumor reduction): 11.9 months
  Median Survival, Responders (≥50% tumor reduction): 14.4 months
SCCHN
  Median Overall Survival: 4.2-5.6 months

## CC(=O)O[C@H]1C(=O)[C@@]2(C)[C@H]([C@H](OC(=O)c3ccccc3)[C@]3(O)C[C@H](OC(=O)[C@H](O)[C@@H](NC(=O)c4ccccc4)c4ccccc4)C(C)=C1C3(C)C)[C@]1(OC(C)=O)CO[C@@H]1C[C@@H]2O [Paclitaxel]
SCCHN
  Median Overall Survival: 4.4 months

## Carboplatin/5FU
SCCHN
  Median Overall Survival: 5.0 months

## Cisplatin/5FU
SCCHN
  Median Overall Survival: 5.6-6.4 months

B1: Vitaxin®: a monoclonal antibody directed against the αv/β3 vascular integrin (antibody, chains of the INN, looked up, V domains shown)
VH: QVQLVESGGGVVQPGRSLRLSCAASGFTFSSYDMSWVRQAPGKGLEWVAKVSSGGGSTYYLDTVQGRFTISRDNSKNTLYLQMNSLRAEDTAVYYCARHLHGSFASWGQGTTVTVSS
VL: EIVLTQSPATLSLSPGERATLSCQASQSISNFLHWYQQRPGQAPRLLIRYRSQSISGIPARFSGSGSGTDFTLTISSLEPEDFAVYYCQQSGSWPLTFGGGTKVEIK
αv/β3 vascular integrin [1]
  Effect on tumors: shrinks tumors
αv/β3 vascular integrin [2]
  Effect on solid tumors: some promise in shrinking solid tumors
